This is an account of results in patent publication US20200316156A1, “NASAL BALM FOR RELIEVING ALLERGIC RHINITIS SYMPTOMS” (priority 2019, published 2020).

For this assay, the system named is allergic rhinitis of BALB/c mice. In words: OVA-induced allergic rhinitis in BALB/c mice, sneeze number. The note with it: for Sneeze number, individual mouse: within 15 min after administration, mice No. 1-4, hydrochloride. Type of assay: in vivo. The procedure:
1. Experimental objective: to study the effect of the nasal balm of the disclosure on the allergic rhinitis of BALB/c mice.
2 mg of OVA powder was weighed, dissolved with physiologic saline solution. The final volume was calibrated accurately to 14 mL. 3.5 mL of the OVA solution was pipetted into a 5 mL Eppendorf tube, followed by the addition of 0.5 mL of uniform aluminum hydroxide gel, and then the OVA solution was dropwise added. The mixture was shaken for 30 min, and then 0.2 mL of the resulting solution was injected to each mouse to induce the sensitization.
2 mg of OVA powder was weighed, dissolved with physiologic saline solution. The final volume was calibrated accurately to 14 mL.
The mice were quarantined, adaptively fed, and divided into four groups: normal group, model group, positive control group and test group. Each group had 4 mice labeled as No. 1, No. 2, No. 3 and No. 4, respectively. The rest two mice were as backup.
The model group, positive control group and test group were administered with OVA solution through abdominal cavity to induce sensitization. Each mouse was administered with 0.2 mL of OVA solution containing 25 μg of OVA and 1 mg of aluminum hydroxide. Normal group as a control was injected with physiological saline solution at a dosage of 0.2 mL per mouse, where the first injection was labeled as D0, and the second injection and the third injection were performed on D7 and D14, respectively.
After induction, the drugs were administrated to initiate sensitization. The test product was smeared on the noses of the mice in normal group 6 times each day. After application of the test product each day, 20 μL of physiological saline solution was dripped into the nasal cavity of the mice in normal group as a control, at a dosage of 10 μL per nostril. The physiological saline solution was smeared on the nose of the mice in model group 6 times each day. 5 μL of Levocabastine was dripped into the nasal cavity of the mice in positive control group 2 times each day, at a dosage of 2.5 μL per nostril. The test product was smeared on the noses of the mice in test group 6 times each day. After administration of the drugs each day, 20 μL of the OVA solution for sensitization was dripped into the nasal cavity of the mice in model group, positive control group and test group, respectively, at a dosage of 10 μL per nostril.
Daily administration was continued for 10 days from D20-D30. On D23, D27 and D30 (that is, the 3rd day, 7th day and 10th day after administration), the number of times mice sneezed in each group within 15 min after administration was counted.
Unpaired two-tailed t-test was used to analyze data for each group.

SMILES strings stand for the structures. Values joined by “and” are separate entries in the source; they are usually repeats but may differ in a detail not shown here. Identical values can stand only once. Counter-ions that a name gives are not always drawn.

As for `C[C@@H]1CN([C@H]2CC[C@](C#N)(c3ccc(F)cc3)CC2)CC[C@]1(C(=O)O)c1ccccc1` [Levocabastine, Levocabastine hydrochloride], the “Sneeze number compared with the model group” value is listed as “decreased significantly” (3rd day of administration), “no significant difference” (7th day of administration) and “no significant difference” (10th day of administration). In addition, the “Sneeze number, individual mouse” value by setting is: (D23 (3rd day of administration)) 7 and 15 and 8 and 11; (D27 (7th day of administration)) 75 and 45 and 44 and 22; (D30 (10th day of administration)) 124 and 108 and 46 and 110. Besides, the “Sneeze number of mice, statistical data” value is, setting by setting: (D23, group of 4 mice, model group 22.75 ± 1.50) 10.25 ± 3.59; (D27, group of 4 mice, model group 69.75 ± 17.08) 46.50 ± 21.76; (D30, group of 4 mice, model group 100.25 ± 14.13) 97.00 ± 34.74.
